Source: ChEMBL document CHEMBL4265943, “Design and synthesis of potent dual inhibitors of JAK2 and HDAC based on fusing the pharmacophores of XL019 and vorinostat” (Eur J Med Chem, 2018)

What was measured:
[1] = Selectivity index, ratio of CC50 for human AC10 cells to IC50 for human KMS-12-BM cells; assay type: toxicity; details: AC10 cells (CC50) and KMS-12-BM cells (IC50)
[2] = Selectivity index, ratio of CC50 for mouse TAMH cells to IC50 for human XG6 cells; assay type: toxicity; details: TAMH cells (CC50) and XG6 cells (IC50)
[3] = target: T1, Tyrosine-protein kinase JAK2 (Homo sapiens, UniProt O60674); assay: Inhibition of human JAK2 using poly(Glu:Tyr)(4:1) as substrate preincubated for 20 mins followed by [gamma33P]ATP addition measured after 120 mins by ion exchange filter paper method
T1 sequence (O60674 whole entry): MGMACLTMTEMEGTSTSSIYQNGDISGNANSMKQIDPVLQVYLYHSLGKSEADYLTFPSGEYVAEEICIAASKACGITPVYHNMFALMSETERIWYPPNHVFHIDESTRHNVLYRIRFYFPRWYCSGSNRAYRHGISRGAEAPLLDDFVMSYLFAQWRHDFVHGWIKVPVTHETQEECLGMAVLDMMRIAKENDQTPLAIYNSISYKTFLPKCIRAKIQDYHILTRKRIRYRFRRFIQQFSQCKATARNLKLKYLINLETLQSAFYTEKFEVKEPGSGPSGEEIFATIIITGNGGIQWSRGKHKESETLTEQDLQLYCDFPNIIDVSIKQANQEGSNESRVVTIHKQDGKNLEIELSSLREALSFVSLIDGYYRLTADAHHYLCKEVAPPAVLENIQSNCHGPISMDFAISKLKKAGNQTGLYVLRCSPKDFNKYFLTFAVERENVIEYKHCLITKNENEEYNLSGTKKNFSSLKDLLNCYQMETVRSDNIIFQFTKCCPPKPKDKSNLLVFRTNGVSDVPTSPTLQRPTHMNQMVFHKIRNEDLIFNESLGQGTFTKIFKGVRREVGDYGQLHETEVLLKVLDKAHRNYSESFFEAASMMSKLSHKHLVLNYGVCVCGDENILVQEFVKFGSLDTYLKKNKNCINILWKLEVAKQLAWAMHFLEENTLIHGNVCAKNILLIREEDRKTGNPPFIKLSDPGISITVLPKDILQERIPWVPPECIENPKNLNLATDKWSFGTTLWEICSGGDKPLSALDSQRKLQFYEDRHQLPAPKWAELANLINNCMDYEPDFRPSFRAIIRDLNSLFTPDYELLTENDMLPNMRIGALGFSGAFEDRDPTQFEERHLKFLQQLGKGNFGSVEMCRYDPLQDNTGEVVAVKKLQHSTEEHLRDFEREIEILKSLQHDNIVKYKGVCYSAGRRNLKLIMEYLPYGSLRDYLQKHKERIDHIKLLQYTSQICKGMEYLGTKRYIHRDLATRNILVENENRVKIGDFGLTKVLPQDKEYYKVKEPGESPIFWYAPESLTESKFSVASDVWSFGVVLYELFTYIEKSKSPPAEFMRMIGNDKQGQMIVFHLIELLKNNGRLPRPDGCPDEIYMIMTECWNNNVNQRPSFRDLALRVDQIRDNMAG

[4] = Antiproliferative activity against human XG6 cells after 72 hrs by MTT assay; assay type: functional, cell-based; details: XG6, 72 h
HEL 92.1.7 = assay: cells; assay type: functional, cell-based; details: Homo sapiens, HEL 92.1.7, 72 h
Description: Antiproliferative activity against human HEL 92.1.7 cells after 72 hrs by MTT assay

[5] = Selectivity index, ratio of CC50 for mouse TAMH cells to IC50 for human MCF7 cells; assay type: toxicity; details: TAMH cells (CC50) and MCF7 cells (IC50)
[6] = Selectivity index, ratio of CC50 for mouse TAMH cells to IC50 for human MDA-MB-231 cells; assay type: toxicity; details: TAMH cells (CC50) and MDA-MB-231 cells (IC50)
Histone deacetylase 1 = Histone deacetylase 1 (Homo sapiens, UniProt Q13547); assay: Inhibition of HDAC1 (unknown origin) using Arg-His-Lys-Lys(Ac) as substrate preincubated with enzyme followed by substrate addition for 2 hrs and measured for 1.5 hrs at 15 mins time interval by fluorescence assay
Sequence of Histone deacetylase 1 (Q13547 whole entry): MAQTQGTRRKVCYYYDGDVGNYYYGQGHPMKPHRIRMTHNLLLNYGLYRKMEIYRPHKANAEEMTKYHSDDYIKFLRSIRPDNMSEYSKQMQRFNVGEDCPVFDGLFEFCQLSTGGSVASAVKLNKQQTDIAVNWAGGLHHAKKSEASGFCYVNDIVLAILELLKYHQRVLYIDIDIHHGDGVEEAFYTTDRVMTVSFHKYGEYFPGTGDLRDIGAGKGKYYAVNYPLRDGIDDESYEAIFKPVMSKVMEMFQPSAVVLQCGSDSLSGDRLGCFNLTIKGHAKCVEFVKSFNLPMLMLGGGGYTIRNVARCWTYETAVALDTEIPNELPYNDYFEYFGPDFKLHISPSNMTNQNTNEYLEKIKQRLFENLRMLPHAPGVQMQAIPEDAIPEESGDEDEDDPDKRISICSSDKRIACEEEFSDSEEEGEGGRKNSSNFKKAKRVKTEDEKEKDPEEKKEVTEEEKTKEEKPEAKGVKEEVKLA

[7] = Selectivity index, ratio of CC50 for mouse TAMH cells to IC50 for human Jurkat cells; assay type: toxicity; details: TAMH cells (CC50) and Jurkat cells (IC50)
Jurkat = assay: Antiproliferative activity against human Jurkat cells after 72 hrs by MTT assay; assay type: functional, cell-based
[8] = Selectivity index, ratio of CC50 for human AC10 cells to IC50 for human PC3 cells; assay type: toxicity; details: AC10 cells (CC50) and PC3 cells (IC50)
[9] = Selectivity index, ratio of CC50 for human AC10 cells to IC50 for human MCF7 cells; assay type: toxicity; details: AC10 cells (CC50) and MCF7 cells (IC50)
[10] = Selectivity index, ratio of CC50 for human AC10 cells to IC50 for human HCT116 cells; assay type: toxicity; details: AC10 cells (CC50) and HCT116 cells (IC50)
[11] = Selectivity index, ratio of CC50 for human AC10 cells to IC50 for human MDA-MB-231 cells; assay type: toxicity; details: AC10 cells (CC50) and MDA-MB-231 cells (IC50)
[12] = Selectivity index, ratio of CC50 for human AC10 cells to IC50 for human HEL 92.1.7 cells; assay type: toxicity; details: AC10 cells (CC50) and HEL 92.1.7 cells (IC50)
[13] = Antiproliferative activity against mouse TAMH cells after 72 hrs by MTT assay; assay type: cell-based
MCF7 = assay: Antiproliferative activity against human MCF7 cells after 72 hrs by MTT assay; assay type: functional, cell-based; details: MCF7, 72 h
HCT-116 = assay: Antiproliferative activity against human HCT116 cells after 72 hrs by MTT assay; assay type: functional, cell-based; details: HCT-116, 72 h
[14] = Selectivity index, ratio of CC50 for mouse TAMH cells to IC50 for human HCT116 cells; assay type: toxicity; details: TAMH cells (CC50) and HCT116 cells (IC50)
[15] = Selectivity index, ratio of CC50 for mouse TAMH cells to IC50 for human KMS-12-BM cells; assay type: toxicity; details: TAMH cells (CC50) and KMS-12-BM cells (IC50)
[16] = Selectivity index, ratio of CC50 for mouse TAMH cells to IC50 for human PC3 cells; assay type: toxicity; details: TAMH cells (CC50) and PC3 cells (IC50)
[17] = Selectivity index, ratio of CC50 for human AC10 cells to IC50 for human Jurkat cells; assay type: toxicity; details: AC10 cells (CC50) and Jurkat cells (IC50)
[18] = Antiproliferative activity against human AC10 cells after 72 hrs by MTT assay; assay type: cell-based
KMS-12-BM = assay: Antiproliferative activity against human KMS-12-BM cells after 72 hrs by MTT assay; assay type: functional, cell-based
PC-3 = assay: Antiproliferative activity against human PC3 cells after 72 hrs by MTT assay; assay type: functional, cell-based; details: PC-3, 72 h
MDA-MB-231 = assay: Antiproliferative activity against human MDA-MB-231 cells after 72 hrs by MTT assay; assay type: functional, cell-based; details: MDA-MB-231, 72 h
[19] = target: T2, Protein deacetylase HDAC6 (Homo sapiens, UniProt Q9UBN7); assay: Inhibition of HDAC6 (unknown origin) using Arg-His-Lys-Lys(Ac) as substrate preincubated with enzyme followed by substrate addition for 2 hrs and measured for 1.5 hrs at 15 mins time interval by fluorescence assay
T2 sequence (Q9UBN7 whole entry): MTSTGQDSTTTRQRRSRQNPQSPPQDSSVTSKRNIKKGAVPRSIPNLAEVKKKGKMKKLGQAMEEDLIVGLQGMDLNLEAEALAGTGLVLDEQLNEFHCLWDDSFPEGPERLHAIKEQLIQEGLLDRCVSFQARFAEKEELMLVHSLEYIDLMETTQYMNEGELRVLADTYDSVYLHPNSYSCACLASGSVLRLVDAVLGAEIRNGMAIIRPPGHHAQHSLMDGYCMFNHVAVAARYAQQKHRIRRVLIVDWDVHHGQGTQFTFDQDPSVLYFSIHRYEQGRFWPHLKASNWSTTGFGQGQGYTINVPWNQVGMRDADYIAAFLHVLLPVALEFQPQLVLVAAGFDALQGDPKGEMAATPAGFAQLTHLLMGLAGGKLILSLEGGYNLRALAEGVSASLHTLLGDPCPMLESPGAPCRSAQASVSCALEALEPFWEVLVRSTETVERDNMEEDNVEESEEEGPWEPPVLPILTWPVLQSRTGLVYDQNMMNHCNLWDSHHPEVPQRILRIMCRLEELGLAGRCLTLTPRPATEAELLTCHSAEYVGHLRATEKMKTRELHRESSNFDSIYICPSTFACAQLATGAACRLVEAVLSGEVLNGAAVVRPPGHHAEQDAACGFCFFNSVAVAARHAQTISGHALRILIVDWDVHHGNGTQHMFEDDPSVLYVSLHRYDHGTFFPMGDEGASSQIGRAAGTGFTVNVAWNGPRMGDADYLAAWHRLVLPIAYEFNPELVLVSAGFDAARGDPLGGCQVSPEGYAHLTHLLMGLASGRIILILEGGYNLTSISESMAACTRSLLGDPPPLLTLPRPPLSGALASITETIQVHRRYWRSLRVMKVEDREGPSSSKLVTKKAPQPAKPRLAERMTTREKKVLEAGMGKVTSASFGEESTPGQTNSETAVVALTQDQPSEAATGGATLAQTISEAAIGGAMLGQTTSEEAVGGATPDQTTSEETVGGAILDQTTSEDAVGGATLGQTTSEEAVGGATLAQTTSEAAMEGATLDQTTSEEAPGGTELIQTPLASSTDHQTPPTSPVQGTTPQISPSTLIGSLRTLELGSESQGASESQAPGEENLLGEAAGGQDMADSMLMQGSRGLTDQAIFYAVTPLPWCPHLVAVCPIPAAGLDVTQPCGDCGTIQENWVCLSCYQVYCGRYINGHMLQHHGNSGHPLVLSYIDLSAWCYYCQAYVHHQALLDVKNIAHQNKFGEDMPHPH

[20] = Selectivity index, ratio of CC50 for human AC10 cells to IC50 for human XG6 cells; assay type: toxicity; details: AC10 cells (CC50) and XG6 cells (IC50)
[21] = Selectivity index, ratio of CC50 for mouse TAMH cells to IC50 for human HEL 92.1.7 cells; assay type: toxicity; details: TAMH cells (CC50) and HEL 92.1.7 cells (IC50)
[22] = target: T1, Tyrosine-protein kinase JAK2; assay: Inhibition of human JAK2 at 10 uM using poly(Glu:Tyr)(4:1) as substrate preincubated for 20 mins followed by [gamma33P]ATP addition measured after 120 mins by ion exchange filter paper method relative to control

IC50 [3] [nM]	IC50 (HEL 92.1.7) [nM]	IC50 (Histone deacetylase 1) [nM]	IC50 (Jurkat) [nM]	IC50 (MCF7) [nM]	IC50 (HCT-116) [nM]	IC50 (PC-3) [nM]	IC50 (MDA-MB-231) [nM]	IC50 [19] [nM]	SMILES	selectivity ratio [1]	selectivity ratio [2]	IC50 [4] [nM]	selectivity ratio [5]	selectivity ratio [6]	selectivity ratio [7]	selectivity ratio [8]	selectivity ratio [9]	CC50 at 72 h [13] [nM]	CC50 at 72 h [18] [nM]	IC50 (KMS-12-BM) [nM]	further results
23	1510	145	1770	810	990	1470	1560	3	CC(=O)Nc1ccc(-c2ccnc(Nc3ccc(OCCCCCCC(=O)NO)cc3)n2)cc1	23.9	1.76	2080	4.52	2.35	2.07	1.63	2.95	3660	2390	100	selectivity ratio [10]: 2.41; selectivity ratio [11]: 1.53; selectivity ratio [12]: 1.58; selectivity ratio [14]: 3.7; selectivity ratio [15]: 36.6; selectivity ratio [16]: 2.49; selectivity ratio [17]: 0.89; selectivity ratio [20]: 1.15; selectivity ratio [21]: 2.42
27.4									CC(=O)Nc1ccc(-c2ccnc(Nc3ccccc3)n2)cc1												inhibition [22]: 96.4%
	1360	89	1030	2010	1150	1510	1020	1.3	CC(=O)Nc1ccc(-c2ccnc(Nc3ccc(OCCCCCC(=O)NO)cc3)n2)cc1			1070						7390	5740	70	
17	3340	1040	> 10000	1220	1510	1640	3610	6.7	CC(=O)Nc1ccc(-c2ccnc(Nc3cccc(OCCCCCCCC(=O)NO)c3)n2)cc1	> 147	0.38	7220	2.27	0.77	< 0.28	> 61	> 82	2770	> 100000	680	selectivity ratio [10]: > 66.2; selectivity ratio [11]: > 27.7; selectivity ratio [12]: > 30; selectivity ratio [14]: 1.83; selectivity ratio [15]: 4.07; selectivity ratio [16]: 1.69; selectivity ratio [17]: 3; selectivity ratio [20]: > 13.9; selectivity ratio [21]: 0.83
3.4	1830	637	1190	2550	790	1660	1240	2.4	CC(=O)Nc1ccc(-c2ccnc(Nc3cccc(OCCCCCC(=O)NO)c3)n2)cc1	14.7	2.39	3700	3.47	7.15	7.45	1.77	1.15	8860	2930	200	selectivity ratio [10]: 3.71; selectivity ratio [11]: 2.36; selectivity ratio [12]: 1.61; selectivity ratio [14]: 11.2; selectivity ratio [15]: 44.3; selectivity ratio [16]: 5.34; selectivity ratio [17]: 1.35; selectivity ratio [20]: 0.79; selectivity ratio [21]: 4.85
2.93	8960	4580	9990	30800	18400	32800	11400	9.7	CC(=O)Nc1ccc(-c2nc(Nc3cccc(OCCCCCCCC(=O)NO)c3)ncc2C)cc1	38.3	1.1	8300	0.3	0.8	0.91	0.63	0.67	9140	20100 to 20700	540	selectivity ratio [10]: 1.12; selectivity ratio [11]: 1.81; selectivity ratio [12]: 2.31; selectivity ratio [14]: 0.5; selectivity ratio [15]: 17; selectivity ratio [16]: 0.28; selectivity ratio [17]: 0.23; selectivity ratio [20]: 2.49; selectivity ratio [21]: 1.02
									CC(=O)Nc1ccc(-c2ccnc(NCc3ccccc3)n2)cc1												inhibition [22]: 3.85%
									CC(=O)Nc1ccc(-c2ccnc(NCCc3ccccc3)n2)cc1												inhibition [22]: 6.22%
3.6	970	83	1060	2420	660	1890	1760	1.8	CC(=O)Nc1ccc(-c2ccnc(Nc3cccc(OCCCCCCC(=O)NO)c3)n2)cc1	8.54	1.5	4690	2.9	3.99	6.65	1.58	1.24	7020	2990	350	selectivity ratio [10]: 4.53; selectivity ratio [11]: 1.7; selectivity ratio [12]: 3.08; selectivity ratio [14]: 10.6; selectivity ratio [15]: 20.1; selectivity ratio [16]: 3.71; selectivity ratio [17]: 2.92; selectivity ratio [20]: 0.64; selectivity ratio [21]: 7.24
	3920	1700	3480	5530	1800	4730	5330	14	CC(=O)Nc1ccc(-c2ccnc(Nc3ccc(OCCCCCCCC(=O)NO)cc3)n2)cc1			10200						9330	3500	1960	
